Experimental data as given in patent publication US7763607B2, “Pharmaceutical compositions comprising CBx cannabinoid receptor modulators and potassium channel modulators” (Solvay Pharmaceuticals GmbH, priority 2006, dated 2010).
Where two headings read alike, the source gives them in different places.

Columns and labels:
[1] = tested on: rat perifused pancreatic islets; test: KATP opening effects through insulin secretion in rat perifused pancreatic islets; format: cell-based; conditions: insulin secretion at 11 mM glucose; for % Inhibition 0-30: 0-30 minutes; for % Inhibition 30-60: 30-60 minutes
Experimental: The animals were maintained on a 12 h light-dark cycle (lights on 06.00-18.00 h) with free access to standard rodent diet (B&K Universal Ltd standard rat and mouse diet (BK 001P), Beekay Feeds, B&K Universal Ltd, Hull, East Riding of Yorkshire) and tap water. The rats were conditioned to this environment for at least one week before experimentation.
Experimental procedures: After the rats were sacrificed, the branch of the bile duct leading to the liver and the duodenal end of the duct in the pancreas were clamped and the pancreas distended by injection of ice-cold 0.9 mg/ml collagenase solution into the bile duct. […] Following incubation, 10 ml of cold buffer was added and the suspension shaken vigorously by hand for 1 min. The islets were allowed to settle for 5 min on ice and washed three times using ice-cold buffer. Well formed and good sized islets from 3 rats were hand-picked (under a low power microscope) and pooled and a final selection of islet transferred to the perifusion apparatus.
Two experiments were performed in parallel in two identical, independent sets of perifusion apparatus each consisting of sufficient number of chambers. Each chamber was loaded with 20 hand-picked islets. Islets were perifused for an initial 30 min period in media containing 4 mM glucose. Perifusate was then collected at 2 min intervals for the remainder of the experiment. […] Perifusate fractions were stored at −75° C. until required for insulin assay. Insulin content of fractions were assayed using a 96-well ELISA assay (Mercodia). Initial insulin assays were performed in triplicate on three pooled fractions from each chamber.
Data were initially expressed as a simple mean of the three experiments for insulin secretion (pg/islet/min) and multiple t-tests (against the corresponding vehicle time period) used to determine potential significant effects of treatments. Alternatively, data were also calculated as a % vehicle effect for each experimental day.

[2] = tested on: glucose-stimulated insulin release; test: Inhibition of glucose-stimulated insulin release (potency comparison in text); conditions: relative to diazoxide
hamster SUR1 = molecular target: T1, hamster SUR1 (Cricetus cricetus, UniProt Q09427); test: biochemical; format: binding
T1 construct: expressed in transfected cells; host or cells: COS-1 cells (transient, pcDNA vector), membranes
Experimental: Competitive binding experiments were performed to characterize the affinity of the test compounds for the binding sites for sulfonylureas and KATP channel openers (KCOs) on hamster SUR1. To assess the affinity for the sulfonylurea site membranes from COS-cells transiently expressing hamster SUR1 were incubated in the presence of [^3H]glibenclamide with increasing concentrations of test compounds. […] Per curve 9-15 distinct concentrations were tested covering the relevant range. All measurements were repeated at least 5 times in independent experiments.
[^3H]glibenclamide (specific activity 51 Ci mmol^−1 was obtained from NEN (Dreieich, Germany). If suitable, stock solutions were prepared in dimethylsulfoxide with a final solvent concentration in the media below 1%.
SUR- or Kir6.x isoforms were used either subcloned in the pcDNA (hamster SUR1, mouse Kir6.2) or pCMV vector (rat SUR2A, SUR2B).
Rodent SUR-isoforms and KATP channels were transiently expressed in COS-1 cells as described in the literature. […]
The inhibition constant (Ki value) of the test substances was calculated from the respective IC50 value and was stated as the negative logarithmic value thereof (pKi).

rat SUR2 = rat SUR2 (Rattus norvegicus, UniProt Q63563); test: In vitro binding affinity to rodent KATP channels: SUR2 (COS cell membranes); conditions: rat SUR2 transiently expressed in COS cells; isoform (2A/2B) not given
Experimental: Similar to SUR1 (see above) competitive binding experiments were performed to characterize the affinity of the test compounds for the binding sites for sulfonylureas and KCOs on rat SUR2A. The affinity for the KCO site on SUR2A was assessed by displacement of [^3H]P1075 (see Schwanstecher et al., 1998; Dörschner H. et al. Mol. Pharmacol. 55 (1999) 1060-1066 (Dörschner et al., 1999)). The affinity of [^3H]glibenclamide for the […] SUR2 isoforms, however, is too weak to allow direct detection of binding using filtration assays. Therefore, two strategies can be used to detect binding to the sulfonylurea site on SUR2A. First, binding can be detected indirectly through allosteric displacement of [^3H]P1075 (Dörschner et al., 1999). Second, a mutated SUR2A (SUR2AY1205S, see above) with increased affinity for [^3H]glibenclamide allowing direct displacement of this tracer can be used.
Membranes from COS-cells transiently expressing rat SUR2A were incubated in the presence of the radioligands with increasing concentrations of test compounds as described above. […] For each test compound […] displacement curves were measured (displacement of [^3H]P1075 from the rat isoform of the wild type receptor and displacement of [^3H]glibenclamide from the rat isoform of SUR2AY1205S). Per curve 9-15 distinct concentrations were tested covering the relevant range. […]

Sequence of rat SUR2 (Q63563 1-1503 Y1205S limits assumed, form open): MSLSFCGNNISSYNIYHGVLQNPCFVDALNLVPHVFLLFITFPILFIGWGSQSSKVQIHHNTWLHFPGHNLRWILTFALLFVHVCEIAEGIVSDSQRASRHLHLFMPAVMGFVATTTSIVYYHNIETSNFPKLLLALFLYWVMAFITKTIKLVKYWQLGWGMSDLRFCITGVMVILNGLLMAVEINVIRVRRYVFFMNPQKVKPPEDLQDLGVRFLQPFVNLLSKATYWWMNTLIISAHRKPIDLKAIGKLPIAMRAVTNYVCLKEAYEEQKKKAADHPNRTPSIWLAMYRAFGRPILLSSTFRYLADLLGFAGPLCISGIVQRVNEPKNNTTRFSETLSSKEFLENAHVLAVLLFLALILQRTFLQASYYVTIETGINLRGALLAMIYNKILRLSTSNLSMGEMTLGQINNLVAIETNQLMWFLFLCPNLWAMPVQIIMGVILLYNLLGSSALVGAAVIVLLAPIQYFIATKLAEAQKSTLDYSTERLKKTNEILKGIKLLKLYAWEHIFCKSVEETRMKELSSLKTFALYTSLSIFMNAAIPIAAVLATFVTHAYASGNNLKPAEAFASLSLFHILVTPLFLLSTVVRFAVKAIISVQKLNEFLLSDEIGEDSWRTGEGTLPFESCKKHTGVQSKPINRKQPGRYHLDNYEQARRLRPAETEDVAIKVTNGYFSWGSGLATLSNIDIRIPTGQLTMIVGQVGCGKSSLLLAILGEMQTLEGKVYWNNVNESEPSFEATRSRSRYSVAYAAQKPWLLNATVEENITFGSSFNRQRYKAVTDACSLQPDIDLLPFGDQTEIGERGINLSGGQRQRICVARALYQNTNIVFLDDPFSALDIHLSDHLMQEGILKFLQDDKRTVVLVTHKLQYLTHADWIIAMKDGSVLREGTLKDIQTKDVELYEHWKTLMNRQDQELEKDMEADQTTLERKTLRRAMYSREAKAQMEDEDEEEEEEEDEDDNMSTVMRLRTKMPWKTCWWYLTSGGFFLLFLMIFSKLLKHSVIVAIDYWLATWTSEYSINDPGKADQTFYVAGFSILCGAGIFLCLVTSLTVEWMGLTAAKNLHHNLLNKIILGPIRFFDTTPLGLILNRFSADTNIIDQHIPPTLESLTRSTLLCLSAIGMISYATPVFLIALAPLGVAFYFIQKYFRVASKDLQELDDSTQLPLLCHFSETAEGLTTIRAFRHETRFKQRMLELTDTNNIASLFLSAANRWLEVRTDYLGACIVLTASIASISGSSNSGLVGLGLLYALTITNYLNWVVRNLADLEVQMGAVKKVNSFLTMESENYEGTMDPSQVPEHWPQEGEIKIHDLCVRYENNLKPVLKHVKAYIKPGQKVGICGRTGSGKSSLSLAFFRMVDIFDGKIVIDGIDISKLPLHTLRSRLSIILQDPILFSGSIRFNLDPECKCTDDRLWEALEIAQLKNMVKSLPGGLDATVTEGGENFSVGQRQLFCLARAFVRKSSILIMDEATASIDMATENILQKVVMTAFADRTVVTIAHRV
T1 sequence (Q09427 whole entry): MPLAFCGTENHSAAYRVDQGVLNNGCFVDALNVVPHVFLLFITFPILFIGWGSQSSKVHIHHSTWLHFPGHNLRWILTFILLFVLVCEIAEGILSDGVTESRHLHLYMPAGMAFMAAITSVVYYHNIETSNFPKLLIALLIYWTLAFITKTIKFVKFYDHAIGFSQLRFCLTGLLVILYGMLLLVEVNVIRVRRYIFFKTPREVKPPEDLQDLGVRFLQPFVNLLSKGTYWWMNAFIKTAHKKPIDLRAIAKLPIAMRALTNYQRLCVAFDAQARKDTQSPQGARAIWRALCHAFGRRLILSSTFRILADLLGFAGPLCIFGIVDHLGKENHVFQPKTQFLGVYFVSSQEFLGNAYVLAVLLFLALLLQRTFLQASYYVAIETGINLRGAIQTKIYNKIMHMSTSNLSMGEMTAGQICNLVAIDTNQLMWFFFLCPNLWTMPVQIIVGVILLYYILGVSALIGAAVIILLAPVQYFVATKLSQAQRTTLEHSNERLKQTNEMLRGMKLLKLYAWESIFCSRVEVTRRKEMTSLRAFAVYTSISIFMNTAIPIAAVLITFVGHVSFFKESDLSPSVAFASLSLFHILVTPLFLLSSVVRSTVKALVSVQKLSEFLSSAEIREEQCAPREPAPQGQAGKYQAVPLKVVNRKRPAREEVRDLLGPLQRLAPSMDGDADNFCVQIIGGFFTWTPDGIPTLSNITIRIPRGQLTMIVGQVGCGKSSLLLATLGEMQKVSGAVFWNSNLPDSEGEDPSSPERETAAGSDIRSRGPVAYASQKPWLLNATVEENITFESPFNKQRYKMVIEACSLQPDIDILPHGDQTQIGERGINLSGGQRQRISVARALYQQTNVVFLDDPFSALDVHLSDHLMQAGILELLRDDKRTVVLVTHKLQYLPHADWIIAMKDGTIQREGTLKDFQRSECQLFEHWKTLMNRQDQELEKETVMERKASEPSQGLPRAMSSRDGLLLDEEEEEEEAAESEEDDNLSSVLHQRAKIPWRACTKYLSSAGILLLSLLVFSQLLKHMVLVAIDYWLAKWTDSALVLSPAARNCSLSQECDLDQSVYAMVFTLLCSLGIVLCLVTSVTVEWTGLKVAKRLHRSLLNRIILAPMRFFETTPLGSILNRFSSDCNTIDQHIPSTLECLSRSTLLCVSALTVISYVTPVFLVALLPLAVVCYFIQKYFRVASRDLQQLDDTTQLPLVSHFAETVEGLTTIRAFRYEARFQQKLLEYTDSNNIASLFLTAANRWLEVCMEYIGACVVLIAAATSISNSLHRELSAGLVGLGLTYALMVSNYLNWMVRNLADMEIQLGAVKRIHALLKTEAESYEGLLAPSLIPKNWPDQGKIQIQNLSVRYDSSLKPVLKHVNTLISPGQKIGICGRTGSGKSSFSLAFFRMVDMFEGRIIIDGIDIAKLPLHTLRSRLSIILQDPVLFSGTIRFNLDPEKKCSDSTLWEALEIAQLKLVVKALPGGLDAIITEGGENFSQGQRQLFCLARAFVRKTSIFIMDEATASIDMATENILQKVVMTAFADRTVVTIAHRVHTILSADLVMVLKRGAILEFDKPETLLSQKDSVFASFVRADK

Row | Compound | % Inhibition 0-30 [1] [%] | % Inhibition 30-60 [1] [%] | further results
1 | CN/C(=N\S(=O)(=O)c1ccc(C(F)(F)F)cc1)N1CC(c2cccnc2)C(c2ccc(Cl)cc2)=N1 (centres unmarked) [N-{[3-(4-Chloro-phenyl)-4-pyridin-3-yl-4,5-dihydro-pyrazol-1-yl]-methylamino-methylene}-4-trifluoromethyl-benzenesulfonamide] | 58 | 31 | 
2 | CSc1c(C(=O)NN2CCCCC2)nc(-c2ccccc2Cl)n1-c1ccc(Cl)cc1 [1-(4-Chloro-phenyl)-2-(2-chloro-phenyl)-5-methylsulfanyl-1H-imidazole-4-carboxylic acid piperidin-1-ylamide] | 56 | 36 | 
3 | CNC(=NS(=O)(=O)N1CCCCC1)C1=NN(c2ccc(Cl)cc2)C(c2ccccc2)C1 (centres unmarked) [Piperdine-1-sulfonic acid [1-(4-chloro-phenyl)-5-phenyl-4,5-dihydro-1H-pyrazol-3-yl]-methylamino-methyleneamide] | 84 | 47 | 
4 | CN/C(=N\S(=O)(=O)N(C)C)N1CC(c2cccc(F)c2)C(c2ccc(Cl)cc2)=N1 (centres unmarked) [N-{[3-(4-Chloro-phenyl)-4-(3-fluoro-phenyl)-4,5-dihydro-pyrazol-1-yl]-methylamino-methylene}-N,N-dimethyl-sulfonamide] | 72 | 77 | 
5 | CN/C(=N\S(=O)(=O)N1CCOCC1)N1CC(c2ccccc2)C(c2ccc(Cl)cc2)=N1 (centres unmarked) [Mopholine-4-sulfonic acid [3-(4-chloro-phenyl)-4-phenyl-4,5-dihydro-pyrazol-1-yl]-methylamino-methyleneamide] | 83 | 91 | 
6 | CC1(NC2=Nc3cc(Cl)sc3S(=O)(=O)N2)CC1 [NN-414] |  |  | times more potent than diazoxide to inhibit glucose-stimulated insulin release [2]: more than 100 times
7 | CN(C)CCNC(=NS(=O)(=O)N1CCCCC1)N1CC(c2ccccc2)C(c2ccc(Cl)cc2)=N1 (centres unmarked) [Piperidin-1-sulfonic acid [3-(4-chloro-phenyl)-4-phenyl-4,5-dihydro-pyrazol-1-yl]-(2-dimethylamino-ethyl-amino)-methyleneamide] | 71 | 64 | 
8 | CC1=NS(=O)(=O)c2cc(Cl)ccc2N1 [Diazoxide, diazoxide] |  |  | Ki (hamster SUR1; example in text on SUR binding, subunit not stated, read-out: pKi (converted)): 158 µM
9 | CON/C(=N\S(=O)(=O)c1ccc(Cl)cc1)N1C[C@H](c2cccc(F)c2)C(c2ccc(Cl)cc2)=N1 (stereo in doubt) [4-Chloro-N-{[3-(4-chloro-phenyl)-4-(3-fluoro-phenyl)-4,5-dihydro-pyrazol-1-yl]-methoxyamino-methylene}-benzenesulfonamide] | 90 | 95 | 
10 | CCc1c(C(=O)NN2CCCCC2)nc(-c2ccccc2Cl)n1-c1ccc(Cl)cc1 [1-(4-Chloro-phenyl)-2-(2-chloro-phenyl)-5-ethyl-1H-imidazole-4-carboxylic acid piperidin-1-ylamide, reference compound] | 59 | 45 | 
11 | Cc1c(C(=O)NN2CCCCC2)nn(-c2ccc(Cl)cc2Cl)c1-c1ccc(Cl)cc1 [Rimonabant, 5-(4-Chloro-phenyl)-1-(2,4-dichloro-phenyl)-4-methyl-1H-pyrazole-3-carboxylic acid piperidin-1-ylamide, reference compound] | 22 | 18 | 
12 | CCCCC/C=C\C/C=C\C/C=C\C/C=C\CCCC(=O)OC(CO)CO [2-AG, Icosa-5,8,11,14-tetraenoic acid 2-hydroxy-1-hydroxymethyl-ethyl ester] |  |  | Affinity to SUR 2 (rat SUR2): 5.5
13 | CCCC(C)(C)c1ccc2c(c1)OC(C)(C)[C@@H]1CC=C(C)C[C@@H]21 [JW133, 3-(1,1-dimethyl-butyl)-6,6,9-trimethyl-6a,7,10,10a-tetrahydro-6H-benzo[c]chromene] |  |  | Ki (hamster SUR1; hamster SUR1 transiently expressed in COS cells, read-out: Affinity to SUR 1 (converted)): 1.26 µM; Affinity to SUR 2 (rat SUR2): 3.6
